ChEMBL document CHEMBL1201862, “PubChem BioAssay data set” (2004)
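Each compound was tested at five concentrations against cells in 96-well plates for 48 hours. GI50 is the concentration that inhibits growth by half.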 Activity calls are given as the source filed them. Rule as the data show it: active = GI50 up to about 1.1 µM and inactive = higher.

Experiments:
Experiment in all cases: DTP human tumour cell line panel, 48 h
NCI-H460 = test system: NCI-H460
EKVX = test system: EKVX
MDA-MB-435 = test system: MDA-MB-435
U-251 = test system: U-251
T47D = test system: T47D
KM12 = test system: KM12
HOP-62 = test system: HOP-62
SF-295 = test system: SF-295
SNB-19 = test system: SNB-19
DU-145 = test system: DU-145
PC-3 = test system: PC-3
SK-MEL-2 = test system: SK-MEL-2
UO-31 = test system: UO-31
SF-268 = test system: SF-268
HOP-92 = test system: HOP-92
MDA-MB-231 = test system: MDA-MB-231
CCRF-CEM = test system: CCRF-CEM
COLO 205 = test system: COLO 205
MCF7 = test system: MCF7
SK-OV-3 = test system: SK-OV-3

Measured: GI50

OC(Cc1ccccc1)(Cc1ccccc1)c1ccccc1
inactive: NCI-H460 19.4 µM | EKVX 12.3 µM | MDA-MB-435 17.5 µM | U-251 18.1 µM | T47D 33.7 µM | KM12 18.3 µM | HOP-62 19.7 µM | SF-295 19.3 µM | SNB-19 26.1 µM | DU-145 17.7 µM | PC-3 18.7 µM | SK-MEL-2 15.3 µM | UO-31 17.5 µM | SF-268 14.9 µM | HOP-92 16.9 µM | MDA-MB-231 19 µM | CCRF-CEM 20.7 µM

OCC1OC(NCCNCCNC2OC(CO)C(O)C(O)C2O)C(O)C(O)C1O (stereo not drawn)
inactive: COLO 205 > 100 µM | NCI-H460 > 100 µM | EKVX > 100 µM | U-251 > 100 µM | MCF7 > 100 µM | T47D > 100 µM | HOP-62 > 100 µM | SF-295 > 100 µM | SNB-19 > 100 µM | DU-145 > 100 µM | PC-3 > 100 µM | SK-MEL-2 > 100 µM | UO-31 > 100 µM | SF-268 > 100 µM | SK-OV-3 > 100 µM | HOP-92 > 100 µM | MDA-MB-231 > 100 µM | CCRF-CEM > 100 µM

CCC/C=C/c1cc2c(cc1O)CC[C@@H]1[C@@H]2CC[C@]2(C)[C@@H](O)CC[C@@H]12
inactive: COLO 205 19.1 µM | NCI-H460 17.4 µM | EKVX 19.2 µM | MDA-MB-435 15.7 µM | U-251 16.9 µM | MCF7 25.5 µM | T47D 24.9 µM | KM12 17.3 µM | SF-295 17.6 µM | SNB-19 23.6 µM | PC-3 15.8 µM | SK-MEL-2 16.6 µM | UO-31 16.3 µM | SF-268 18.4 µM | SK-OV-3 26.8 µM | HOP-92 20.3 µM | MDA-MB-231 15.5 µM | CCRF-CEM 12 µM

CC1(C)CC(=O)C(=CNC(=O)c2ccncc2)C(=O)C1
inactive: COLO 205 > 100 µM | NCI-H460 > 100 µM | EKVX > 100 µM | MDA-MB-435 > 100 µM | U-251 > 100 µM | MCF7 > 100 µM | KM12 > 100 µM | HOP-62 > 100 µM | SF-295 > 100 µM | SNB-19 > 100 µM | DU-145 > 100 µM | PC-3 > 100 µM | SK-MEL-2 > 100 µM | UO-31 > 100 µM | SF-268 > 100 µM | SK-OV-3 > 100 µM | HOP-92 > 100 µM | MDA-MB-231 > 100 µM | CCRF-CEM > 100 µM

COc1ccc2c(c1)C1OCCNC1CC2 (stereo not drawn)
inactive: COLO 205 > 100 µM | EKVX > 100 µM | MDA-MB-435 > 100 µM | U-251 > 100 µM | MCF7 > 100 µM | T47D > 100 µM | KM12 > 100 µM | HOP-62 > 100 µM | SF-295 > 100 µM | SNB-19 > 100 µM | DU-145 > 100 µM | PC-3 > 100 µM | SK-MEL-2 > 100 µM | UO-31 > 100 µM | SF-268 > 100 µM | SK-OV-3 > 100 µM | MDA-MB-231 > 100 µM | CCRF-CEM > 100 µM

C[n+]1cn(-c2nc3ccccc3nc2[N-]S(=O)(=O)c2ccccc2)c2ccccc21
inactive: COLO 205 > 100 µM | NCI-H460 > 100 µM | EKVX > 100 µM | MDA-MB-435 > 100 µM | U-251 > 100 µM | MCF7 > 100 µM | T47D > 100 µM | KM12 > 100 µM | HOP-62 > 100 µM | SF-295 > 100 µM | SNB-19 > 100 µM | PC-3 > 100 µM | SK-MEL-2 > 100 µM | UO-31 80.7 µM | SF-268 > 100 µM | SK-OV-3 > 100 µM | HOP-92 > 100 µM | MDA-MB-231 > 100 µM | CCRF-CEM > 100 µM

O=C1/C(=C/c2ccccc2)CN(C(=O)OCc2ccccc2)C/C1=C\c1ccccc1
inactive: COLO 205 16.1 µM | NCI-H460 21.4 µM | EKVX 20.7 µM | U-251 4.51 µM | MCF7 6.43 µM | T47D 41.4 µM | KM12 5.47 µM | HOP-62 32.1 µM | SF-295 12.8 µM | SNB-19 26.6 µM | DU-145 54.8 µM | PC-3 15 µM | SK-MEL-2 17.9 µM | UO-31 14.6 µM | SF-268 13.8 µM | SK-OV-3 24.4 µM | HOP-92 > 69.5 µM | MDA-MB-231 17.8 µM | CCRF-CEM 2.08 µM

CC1=CC(=O)C(=C(C)C)CC1
inactive: COLO 205 > 10 µM | NCI-H460 > 100 µM | EKVX > 100 µM | MDA-MB-435 > 100 µM | U-251 > 100 µM | MCF7 > 100 µM | T47D > 100 µM | KM12 > 100 µM | HOP-62 > 100 µM | SF-295 > 100 µM | SNB-19 > 100 µM | DU-145 > 100 µM | PC-3 > 100 µM | UO-31 > 100 µM | SF-268 > 100 µM | SK-OV-3 > 100 µM | MDA-MB-231 > 100 µM | CCRF-CEM 28.9 µM

CC(=O)OCc1nc(C#N)c(N)o1
inactive: COLO 205 > 100 µM | NCI-H460 > 100 µM | EKVX > 100 µM | MDA-MB-435 > 100 µM | U-251 > 100 µM | MCF7 > 100 µM | KM12 > 100 µM | HOP-62 > 100 µM | SF-295 > 100 µM | SNB-19 > 100 µM | DU-145 > 100 µM | PC-3 > 100 µM | SK-MEL-2 > 100 µM | UO-31 > 100 µM | SF-268 > 100 µM | SK-OV-3 > 100 µM | HOP-92 > 100 µM | MDA-MB-231 > 100 µM | CCRF-CEM > 100 µM

COc1cccc(/C=C2/Sc3scc(-c4ccccc4)[n+]3C2=O)c1O
inactive: COLO 205 31.8 µM | NCI-H460 17.3 µM | EKVX 19.2 µM | MDA-MB-435 8.65 µM | U-251 19.6 µM | MCF7 15.5 µM | KM12 18.6 µM | HOP-62 23.8 µM | SF-295 37.3 µM | SNB-19 21.3 µM | DU-145 22.1 µM | PC-3 32.1 µM | SK-MEL-2 23.3 µM | UO-31 13.3 µM | SF-268 41.2 µM | SK-OV-3 22.3 µM | HOP-92 15.3 µM | MDA-MB-231 23.5 µM | CCRF-CEM 4.9 µM

CC(C)Oc1c(-c2c(OC(C)C)c(=O)c2=O)c(=O)c1=O
inactive: COLO 205 > 29.7 µM | NCI-H460 > 60.7 µM | EKVX > 48.5 µM | MDA-MB-435 > 30.2 µM | U-251 > 36.5 µM | MCF7 > 20.2 µM | T47D > 100 µM | KM12 > 36.5 µM | HOP-62 > 36.1 µM | SF-295 > 65 µM | SNB-19 > 69 µM | DU-145 > 100 µM | SK-MEL-2 > 56.9 µM | UO-31 > 58.5 µM | SF-268 > 47.3 µM | SK-OV-3 > 100 µM | HOP-92 > 100 µM | MDA-MB-231 > 36.7 µM | CCRF-CEM > 52 µM
